Source: patent publication US12559769B2, “Methods and compositions for the activation of tumor cytotoxicity via human gamma-delta t-cells” (priority 2017, dated 2026)

Test system: Vγ9Vδ2 T cells
Assay: Activation of Vγ9Vδ2 T cells (TNF-α, flow cytometry) by PC3 prostate carcinoma cells co-cultured with expanded PBMC
Type: cell-based, human
Experimental: PC3 cells were transduced with either LV-vector, LV-BTN3A3 (R381H), or LV-BTN3A3 (WT). Three days after transduction, cells were treated with or without 1 μM zoledronic acid. After 24 hours, the transduced PC3 cells were co-cultured with 5×10^5 PBMC cells and IL-2 in a round bottom 96 well plate for 4 hours. The PBMC cells were pre-stimulated with zoledronic acid and IL-2 for 11 days to expand Vγ9Vδ2 T cells. After staining for Vγ9Vδ2 and TNF-α using fluorophore-conjugated anti TCR-Vδ2 and anti-TNF-α antibody, cells were analyzed via flow cytometry. Live cells were gated, and Vδ2+ and TNF-α+ cells were selected on a dot blot. The activated cytotoxic Vγ9Vδ2 T cells appeared in the upper right quadrant of flow cytograms. Without zoledronic acid, the percent of TNF-α expressing Vγ9Vδ2 T cells was 0.37% with LV-vector, 26.7% with BTN3A3 (R381H), and 0.44% with LV-BTN3A3 (WT). With zoledronic acid, the percent of TNF-α expressing Vγ9Vδ2 T cells was 8.91% with LV-vector, 35.2% with BTN3A3 (R381H), and 8.76% with LV-BTN3A3 (WT).
PC3 cells were transduced with LV-vector, LV-BTN3A3 (R381H), or LV-shFDPS-BTN3A3 (R381H). Three days after transduction, cells were treated with or without 1 μM zoledronic acid. After 24 hours, the transduced PC3 cells were co-cultured with 5×10^5 PBMC cells and IL-2 in a round bottom 96 well plate for 4 hours. The PBMC cells were pre-stimulated with zoledronic acid and IL-2 for 11 days to expand Vγ9Vδ2 T cells. After staining for Vγ9Vδ2 and TNF-α using fluorophore-conjugated anti TCR-Vδ2 and anti-TNF-α antibody, cells were analyzed via flow cytometry. Live cells were gated, and Vδ2+ and TNF-α+ cells were selected on a dot blot. The activated cytotoxic Vγ9Vδ2 T cells appeared in the upper right quadrant of flow cytograms. Without zoledronic acid, the percent of TNF-α expressing Vγ9Vδ2 T cells was 0.1% with LV-vector, 21.1% with BTN3A3 (R381H), and 18.2% with the combination of LV-shFDPS-BTN3A3 (R381H). With zoledronic acid, the percent of TNF-α expressing Vγ9Vδ2 T cells was 13.6% with LV-vector, 25.5% with BTN3A3 (R381H), and 39.6% with the combination of LV-shFDPS-BTN3A3 (R381H).
PC3 cells were transduced with LV-shFDPS or LV-shFDPS-IL-2. Three days after transduction, cells were treated with or without 1 μM zoledronic acid. After 24 hours, the transduced PC3 cells were co-cultured with 5×10^5 PBMC cells and with or without IL-2 in a round bottom 96 well plate for 4 hours. The PBMC cells were pre-stimulated with zoledronic acid and IL-2 for 11 days to expand Vγ9Vδ2 T cells. After staining for Vγ9Vδ2 and TNF-α using fluorophore-conjugated anti TCR-Vδ2 and anti-TNF-α antibody, cells were analyzed via flow cytometry. Live cells were gated, and Vδ2+ and TNF-α+ cells were selected on a dot blot. The activated cytotoxic Vγ9Vδ2 T cells appeared in the upper right quadrant of flow cytograms. With only zoledronic acid, the percent of TNF-α expressing Vγ9Vδ2 T cells was 24.6% with LV-shFDPS and 46.8% with LV-shFDPS-IL-2. With zoledronic acid and IL-2, the percent of TNF-α expressing Vγ9Vδ2 T cells was 48.6% with LV-shFDPS and 41% with LV-shFDPS-IL-2.
PC3 cells were transduced with LV-vector, LV-shFDPS, or LV-shFDPS-IL-15. Three days after transduction, cells were treated with or without 1 μM zoledronic acid. After 24 hours, the transduced PC3 cells were co-cultured with 5×10^5 PBMC cells and with or without IL-2 in a round bottom 96 well plate for 4 hours. The PBMC cells were pre-stimulated with zoledronic acid and IL-2 for 11 days to expand Vγ9Vδ2 T cells. After staining for Vγ9Vδ2 and TNF-α using fluorophore-conjugated anti TCR-Vδ2 and anti-TNF-α antibody, cells were analyzed via flow cytometry. Live cells were gated, and Vδ2+ and TNF-α+ cells were selected on a dot blot. The activated cytotoxic Vγ9Vδ2 T cells appeared in the upper right quadrant of flow cytograms. With only zoledronic acid, the percent of TNF-α expressing Vγ9Vδ2 T cells was 10% with LV-vector, 13% with LV-shFDPS, and 14.6% with LV-shFDPS-IL-15. […]

[1] = Example 25, FIG. 29, LV-FDPS shRNA #4 transduced PC3 cells, drug 1 μM, 24 hours
[2] = Example 25, FIG. 29, LV-control transduced PC3 cells, 1 μM, 24 hours, untreated 1.73%

Structure (SMILES) | percent of TNF-α expressing Vγ9Vδ2 T cells (Example 3, LV-vector (control) transduced PC3 cells, 1 μM zoledronic acid) [%] | percent of TNF-α expressing Vγ9Vδ2 T cells (Example 5, LV-vector (control) transduced PC3 cells, 1 μM zoledronic acid) [%] | percent of TNF-α expressing Vγ9Vδ2 T cells (Example 8, LV-vector (control) transduced PC3 cells, only zoledronic acid (1 μM)) [%] | percent of TNF-α expressing Vγ9Vδ2 T cells (Example 8, LV-vector (control) transduced PC3 cells, zoledronic acid (1 μM) and IL-2) [%] | percent of TNF-α expressing Vγ9Vδ2 T cells (Example 19, LV-control transduced PC3 cells, 1 μM zoledronic acid) [%] | percent of TNF-α expressing Vγ9Vδ2 T cells (Example 23, LV-control transduced PC3 cells, 1 μM zoledronic acid) [%] | percent of TNF-α expressing Vγ9Vδ2 T cells [1] [%] | percent of TNF-α expressing Vγ9Vδ2 T cells [2] [%] | percent of TNF-α expressing Vγ9Vδ2 T cells (Example 25, FIG. 29, LV-FDPS shRNA #4 transduced PC3 cells, drug 5 μM, 24 hours) [%] | percent of TNF-α expressing Vγ9Vδ2 T cells (Example 25, FIG. 29, LV-control transduced PC3 cells, 5 μM, 24 hours, untreated 1.73%) [%]
O=P(O)(O)C(O)(Cn1ccnc1)P(=O)(O)O [zoledronic acid] | 8.91 | 13.6 | 10 | 14.5 | 5.71 | 8.66 | 50.3 | 2.87 |  | 
COC(=O)[C@H](CCSC)NC(=O)c1ccc(NC[C@@H](N)CS)cc1-c1ccccc1 [FT1277] |  |  |  |  |  |  | 2.44 | 1.64 |  | 
C=C(CC[C@]12O[C@H](C(=O)O)[C@@](O)(C(=O)O)[C@](C(=O)O)(O1)[C@H](OC(=O)/C=C/[C@@H](C)C[C@@H](C)CC)[C@H]2O)[C@@H](OC(C)=O)[C@H](C)Cc1ccccc1 [zaragozic acid] |  |  |  |  |  |  |  |  | 2.66 | 1.57
